How the values were obtained:
Assay in all cases: Bliss interaction score (quartile over a dose matrix) (fitness difference); higher = more antagonism (negative = synergy)
[1] = system: S. aureus DSM 20231
Outline: (§1)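 Combination data were used to infer fitness under each single drug. Fitness is the OD595 at entry into stationary phase divided by the robust mean of the plate's no-drug wells, with a cap of 1. The Bliss score is the observed minus the expected product fitness, summarised by quartiles over technical, biological and donor/recipient replicates.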

[2] = system: S. aureus Newman
Outline: as §1

[3] = system: S. pneumoniae D39V
Outline: as §1

[4] = system: B. subtilis 168
Outline: as §1
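Also: first quartile when negative (synergy) and third quartile when positive (antagonism).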

Row | SMILES | Bliss interaction score ([1]; main component drawn) | Bliss interaction score ([2]; main component drawn) | Bliss interaction score ([3]; main component drawn) | Bliss interaction score ([4]; main component drawn) | Bliss interaction score [1] | Bliss interaction score [2] | Bliss interaction score [3] | Bliss interaction score [4]
1 | CC(=O)O[C@H]1C[C@@]2(C)[C@@H](C[C@@H](O)[C@H]3[C@@]4(C)CC[C@@H](O)[C@@H](C)[C@@H]4CC[C@@]32C)/C1=C(\CCC=C(C)C)C(=O)O [Fusidic acid] + CCC(C)C1C(=O)NC(=C)C(=O)NC(C(=O)NC(CSCC(C(=O)N1)NC(=O)/C(=C/C)/NC(=O)C(C(C)CC)N)C(=O)NC2C(SCC(NC(=O)CNC(=O)C3CCCN3C2=O)C(=O)NC(CCCCN)C(=O)NC4C(SCC(NC(=O)CNC(=O)C(NC(=O)C(NC(=O)C(NC(=O)CNC4=O)C)CC(C)C)CCSC)C(=O)NC(CC(=O)N)C(=O)NC(CCSC)C(=O)NC(CCCCN)C(=O)NC5C(SCC6C(=O)NC(C(=O)NC(CSC(C(C(=O)N6)NC(=O)C(NC5=O)C)C)C(=O)NC(CO)C(=O)NC(C(C)CC)C(=O)NC(CC7=CN=CN7)C(=O)NC(C(C)C)C(=O)NC(=C)C(=O)NC(CCCCN)C(=O)O)CC8=CN=CN8)C)C)C)CC(C)C [Nisin] | 0.0299 | -0.0346 | -0.0281 | -0.0332 | – | – | – | –
2 | CC(=O)O[C@H]1C[C@@]2(C)[C@@H](C[C@@H](O)[C@H]3[C@@]4(C)CC[C@@H](O)[C@@H](C)[C@@H]4CC[C@@]32C)/C1=C(\CCC=C(C)C)C(=O)O [Fusidic acid] + CCCCCCCCCC(=O)N[C@@H]1[C@H]([C@@H]([C@H](O[C@H]1OC2=C3C=C4C=C2OC5=C(C=C(C=C5)[C@H]([C@H]6C(=O)N[C@@H](C7=C(C(=CC(=C7)O)OC8[C@H]([C@H]([C@@H]([C@H](O8)CO)O)O)O)C9=C(C=CC(=C9)[C@H](C(=O)N6)NC(=O)[C@@H]4NC(=O)[C@@H]1C2=CC(=CC(=C2)OC2=C(C=CC(=C2)[C@H](C(=O)N[C@H](CC2=CC(=C(O3)C=C2)Cl)C(=O)N1)N)O)O)O)C(=O)O)O[C@H]1[C@@H]([C@H]([C@@H]([C@H](O1)CO)O)O)NC(=O)C)Cl)CO)O)O [Teicoplanin] | 0.0374 | -0.0424 | 0.0761 | -0.0459 | – | – | – | –
3 | CC(=O)O[C@H]1C[C@@]2(C)[C@@H](C[C@@H](O)[C@H]3[C@@]4(C)CC[C@@H](O)[C@@H](C)[C@@H]4CC[C@@]32C)/C1=C(\CCC=C(C)C)C(=O)O [Fusidic acid] + CCC[C@@H]1C[C@@H](C(=O)N[C@@H]([C@H]2O[C@H](SC)[C@H](O)[C@@H](O)[C@H]2O)[C@@H](C)O)N(C)C1 [Lincomycin] | – | – | – | – | -0.0572 | -0.0595 | -0.0651 | 0.0915
4 | CC(=O)O[C@H]1C[C@@]2(C)[C@@H](C[C@@H](O)[C@H]3[C@@]4(C)CC[C@@H](O)[C@@H](C)[C@@H]4CC[C@@]32C)/C1=C(\CCC=C(C)C)C(=O)O [Fusidic acid] + CCN(CC)CCOC(=O)c1ccc(N)cc1 [Procaine] | – | – | – | – | -0.0218 | -0.0177 | 0.0981 | -0.0381
5 | CC(=O)O[C@H]1C[C@@]2(C)[C@@H](C[C@@H](O)[C@H]3[C@@]4(C)CC[C@@H](O)[C@@H](C)[C@@H]4CC[C@@]32C)/C1=C(\CCC=C(C)C)C(=O)O [Fusidic acid] + CC[C@H]1OC(=O)[C@H](C)C(=O)[C@H](C)[C@@H](O[C@@H]2O[C@H](C)C[C@H](N(C)C)[C@H]2O)[C@](C)(OC)C[C@@H](C)C(=O)[C@H](C)[C@H]2N(CCCCn3cnc(-c4cccnc4)c3)C(=O)O[C@]12C [Telithromycin] | – | – | – | – | -0.0334 | 0.0161 | -0.0347 | -0.0755
6 | CC(=O)O[C@H]1C[C@@]2(C)[C@@H](C[C@@H](O)[C@H]3[C@@]4(C)CC[C@@H](O)[C@@H](C)[C@@H]4CC[C@@]32C)/C1=C(\CCC=C(C)C)C(=O)O [Fusidic acid] + CN1C2=CC=CC=C2N=C3C1=CC=CC3=O [Pyocyanin] | – | – | – | – | 0.0421 | 0.0295 | 0.0648 | 0.0385
7 | CC(=O)O[C@H]1C[C@@]2(C)[C@@H](C[C@@H](O)[C@H]3[C@@]4(C)CC[C@@H](O)[C@@H](C)[C@@H]4CC[C@@]32C)/C1=C(\CCC=C(C)C)C(=O)O [Fusidic acid] + CN(C)C(=O)C(CCN1CCC(O)(c2ccc(Cl)cc2)CC1)(c1ccccc1)c1ccccc1 [Loperamide] | – | – | – | – | 0.0226 | 0.0269 | 0.128 | -0.0873
8 | CC(=O)O[C@H]1C[C@@]2(C)[C@@H](C[C@@H](O)[C@H]3[C@@]4(C)CC[C@@H](O)[C@@H](C)[C@@H]4CC[C@@]32C)/C1=C(\CCC=C(C)C)C(=O)O [Fusidic acid] + CN(C)c1cc(NC(=O)CNC(C)(C)C)c(O)c2c1C[C@H]1C[C@H]3[C@H](N(C)C)C(O)=C(C(N)=O)C(=O)[C@@]3(O)C(O)=C1C2=O [Tigecycline] | – | – | – | – | -0.0504 | 0.0375 | -0.0713 | 0.074
9 | CC(=O)O[C@H]1C[C@@]2(C)[C@@H](C[C@@H](O)[C@H]3[C@@]4(C)CC[C@@H](O)[C@@H](C)[C@@H]4CC[C@@]32C)/C1=C(\CCC=C(C)C)C(=O)O [Fusidic acid] + CN(N=O)C(=O)N[C@@H](C=O)[C@@H](O)[C@H](O)[C@H](O)CO [Streptozotocin] | – | – | – | – | -0.0166 | -0.0145 | 0.0486 | 0.0745
10 | CC(=O)O[C@H]1C[C@@]2(C)[C@@H](C[C@@H](O)[C@H]3[C@@]4(C)CC[C@@H](O)[C@@H](C)[C@@H]4CC[C@@]32C)/C1=C(\CCC=C(C)C)C(=O)O [Fusidic acid] + CN[C@@H]1[C@H](O)[C@H](NC)[C@H]2O[C@@]3(O)C(=O)C[C@@H](C)O[C@H]3O[C@@H]2[C@H]1O [Spectinomycin] | – | – | – | – | 0.027 | -0.0448 | -0.0789 | 0.0642
11 | CC(=O)O[C@H]1C[C@@]2(C)[C@@H](C[C@@H](O)[C@H]3[C@@]4(C)CC[C@@H](O)[C@@H](C)[C@@H]4CC[C@@]32C)/C1=C(\CCC=C(C)C)C(=O)O [Fusidic acid] + CN[C@@H]1[C@H](O[C@H]2[C@H](O[C@H]3[C@H](O)[C@@H](O)[C@H](N=C(N)N)[C@@H](O)[C@@H]3N=C(N)N)O[C@@H](C)[C@]2(O)C=O)O[C@@H](CO)[C@H](O)[C@H]1O [Streptomycin] | – | – | – | – | 0.034 | -0.0834 | -0.0901 | 0.0692
12 | CC(=O)O[C@H]1C[C@@]2(C)[C@@H](C[C@@H](O)[C@H]3[C@@]4(C)CC[C@@H](O)[C@@H](C)[C@@H]4CC[C@@]32C)/C1=C(\CCC=C(C)C)C(=O)O [Fusidic acid] + CN[C@H](CC(C)C)C(=O)N[C@H]1C(=O)N[C@@H](CC(N)=O)C(=O)N[C@H]2C(=O)N[C@H]3C(=O)N[C@H](C(=O)N[C@H](C(=O)O)c4cc(O)cc(O)c4-c4cc3ccc4O)[C@H](O)c3ccc(c(Cl)c3)Oc3cc2cc(c3O[C@@H]2O[C@H](CO)[C@@H](O)[C@H](O)[C@H]2O[C@H]2C[C@](C)(N)[C@H](O)[C@H](C)O2)Oc2ccc(cc2Cl)[C@H]1O [Vancomycin] | – | – | – | – | 0.0205 | -0.0305 | 0.0729 | -0.0397
13 | CC(=O)O[C@H]1C[C@@]2(C)[C@@H](C[C@@H](O)[C@H]3[C@@]4(C)CC[C@@H](O)[C@@H](C)[C@@H]4CC[C@@]32C)/C1=C(\CCC=C(C)C)C(=O)O [Fusidic acid] + CN[C@H](CC(C)C)C(=O)N[C@H]1C(=O)N[C@@H](CC(N)=O)C(=O)N[C@H]2C(=O)N[C@H]3C(=O)N[C@H](C(=O)N[C@H](C(=O)O)c4cc(O)cc(O)c4-c4cc3ccc4O)[C@H](O[C@H]3C[C@](C)(N)[C@@H](O)[C@H](C)O3)c3ccc(c(Cl)c3)Oc3cc2cc(c3O[C@@H]2O[C@H](CO)[C@@H](O)[C@H](O)[C@H]2O[C@H]2C[C@](C)(NCc3ccc(-c4ccc(Cl)cc4)cc3)[C@@H](O)[C@H](C)O2)Oc2ccc(cc2Cl)[C@H]1O [Oritavancin] | – | – | – | – | 0.0159 | 0.0249 | 0.0765 | 0.0477
14 | CC(=O)O[C@H]1C[C@@]2(C)[C@@H](C[C@@H](O)[C@H]3[C@@]4(C)CC[C@@H](O)[C@@H](C)[C@@H]4CC[C@@]32C)/C1=C(\CCC=C(C)C)C(=O)O [Fusidic acid] + CO[C@@H]1[C@@H](OC(N)=O)[C@@H](O)[C@H](Oc2ccc3c(O)c(NC(=O)c4ccc(O)c(CC=C(C)C)c4)c(=O)oc3c2C)OC1(C)C [Novobiocin] | – | – | – | – | 0.0249 | 0.0521 | -0.153 | 0.0723
15 | CC(=O)O[C@H]1C[C@@]2(C)[C@@H](C[C@@H](O)[C@H]3[C@@]4(C)CC[C@@H](O)[C@@H](C)[C@@H]4CC[C@@]32C)/C1=C(\CCC=C(C)C)C(=O)O [Fusidic acid] + CO[C@@]12[C@H](COC(N)=O)C3=C(C(=O)C(C)=C(N)C3=O)N1C[C@@H]1N[C@@H]12 [MitomycinC] | – | – | – | – | 0.0263 | 0.0159 | -0.149 | 0.0298
16 | CC(=O)O[C@H]1C[C@@]2(C)[C@@H](C[C@@H](O)[C@H]3[C@@]4(C)CC[C@@H](O)[C@@H](C)[C@@H]4CC[C@@]32C)/C1=C(\CCC=C(C)C)C(=O)O [Fusidic acid] + CO[C@H]1/C=C/O[C@@]2(C)Oc3c(C)c(O)c4c(O)c(c(/C=N/N5CCN(C)CC5)c(O)c4c3C2=O)NC(=O)/C(C)=C\C=C\[C@H](C)[C@H](O)[C@@H](C)[C@@H](O)[C@@H](C)[C@H](OC(C)=O)[C@@H]1C [Rifampicin] | – | – | – | – | 0.0497 | 0.0314 | 0.0781 | 0.0723
17 | CC(=O)O[C@H]1C[C@@]2(C)[C@@H](C[C@@H](O)[C@H]3[C@@]4(C)CC[C@@H](O)[C@@H](C)[C@@H]4CC[C@@]32C)/C1=C(\CCC=C(C)C)C(=O)O [Fusidic acid] + COc1c(N2C[C@@H]3CCCN[C@@H]3C2)c(F)cc2c(=O)c(C(=O)O)cn(C3CC3)c12 [Moxifloxacin] | – | – | – | – | 0.0361 | 0.0453 | 0.048 | 0.0398
18 | CC(=O)O[C@H]1C[C@@]2(C)[C@@H](C[C@@H](O)[C@H]3[C@@]4(C)CC[C@@H](O)[C@@H](C)[C@@H]4CC[C@@]32C)/C1=C(\CCC=C(C)C)C(=O)O [Fusidic acid] + COc1cc(Cc2cnc(N)nc2N)cc(OC)c1OC [Trimethoprim] | – | – | – | – | 0.0265 | 0.0427 | -0.0871 | 0.112
19 | CC(=O)O[C@H]1C[C@@]2(C)[C@@H](C[C@@H](O)[C@H]3[C@@]4(C)CC[C@@H](O)[C@@H](C)[C@@H]4CC[C@@]32C)/C1=C(\CCC=C(C)C)C(=O)O [Fusidic acid] + COc1ccc(C[C@H](N)C(=O)N[C@H]2[C@@H](O)[C@H](n3cnc4c(N(C)C)ncnc43)O[C@@H]2CO)cc1 [Puromycin] | – | – | – | – | 0.0336 | -0.0454 | -0.213 | -0.045
20 | CC(=O)O[C@H]1C[C@@]2(C)[C@@H](C[C@@H](O)[C@H]3[C@@]4(C)CC[C@@H](O)[C@@H](C)[C@@H]4CC[C@@]32C)/C1=C(\CCC=C(C)C)C(=O)O [Fusidic acid] + C[C@@H](O)[C@H]1C(=O)N2C(C(=O)O)=C(SCCNC=N)C[C@H]12 [Imipenem] | – | – | – | – | 0.0208 | 0.0214 | 0.0477 | 0.138
21 | CC(=O)O[C@H]1C[C@@]2(C)[C@@H](C[C@@H](O)[C@H]3[C@@]4(C)CC[C@@H](O)[C@@H](C)[C@@H]4CC[C@@]32C)/C1=C(\CCC=C(C)C)C(=O)O [Fusidic acid] + C[C@H]1COc2c(N3CCN(C)CC3)c(F)cc3c(=O)c(C(=O)O)cn1c23 [Levofloxacin] | – | – | – | – | 0.0375 | 0.0554 | 0.119 | 0.034
22 | CC(=O)O[C@H]1C[C@@]2(C)[C@@H](C[C@@H](O)[C@H]3[C@@]4(C)CC[C@@H](O)[C@@H](C)[C@@H]4CC[C@@]32C)/C1=C(\CCC=C(C)C)C(=O)O [Fusidic acid] + C[n+]1ccc(-c2cc[n+](C)cc2)cc1 [Paraquat] | – | – | – | – | 0.0328 | 0.0284 | 0.0439 | 0.0317
